Here are results for 34 molecules from US20030224942A1, “Alkylamino-1,3,5-triazines, processes for their preparation and their use as herbicides and plant growth regulators” (priority 2001, published 2003).

The test system of assay [1] is Chenopodium spp., Papaver spp., Polygonum spp., Veronica spp. or Viola spp. In words: Post-emergence effect on weeds (greenhouse pot test, visual scoring). The class given is in vivo, monocotyledonous and dicotyledonous weeds. The conditions noted are these: treated at three-leaf stage; visual scoring after about 3 to 4 weeks; application rate of 0.5 kg and less of active substance per hectare.

Assay [2] concerns Cyperus spp., Echinochloa spp., Digitaria spp., Sagitaria spp. and Scirpus spp. Kind of assay: Action on harmful plants in rice (paddy rice conditions, visual scoring). The class given is in vivo, typical rice weeds (gramineous and broad-leaved). The conditions noted are these: applied into the dammed water, visual scoring about three weeks after application. In a few lines: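 Under paddy conditions with 2-3 cm dammed water, transplanted and sown rice plus weeds were treated at three-leaf stage (E. crus-galli at 1.5 leaves). Pots stayed in greenhouse under optimum growth conditions for the test period, with visual assessment of damage.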

As to `C#Cc1ccc(CNc2nc(N)nc(C(F)CC)n2)cc1` (centres unmarked) [Product P26.1580], the “herbicidal activity post-emergence against harmful plants” value (from here on “herbicidal activity post-emergence”) in assay [1] is recorded as “very good herbicidal activity”. In addition, the “herbicidal activity against harmful plants which are typical for rice crops” value (“herbicidal activity … for rice crops” for short) in assay [2] is “very good herbicidal activity”.

Regarding `CC#Cc1cccc(CNc2nc(N)nc(C(F)CC)n2)c1` (centres unmarked) [Product P26.1582], in assay [1], the “herbicidal activity post-emergence” value is given as “very good herbicidal activity”. Besides, the “herbicidal activity … for rice crops” value in assay [2] is reported as “very good herbicidal activity”.

Take `CC#Cc1ccc(CNc2nc(N)nc(C(F)CC)n2)cc1` (centres unmarked) [Product P26.1583]: in assay [1], the “herbicidal activity post-emergence” value was “very good herbicidal activity”. In addition, the “herbicidal activity … for rice crops” value in assay [2] was “very good herbicidal activity”.

With `CCC(F)c1nc(N)nc(NCc2cccc(C3CC3)c2)n1` (centres unmarked) [Product P26.1603], in assay [1], the “herbicidal activity post-emergence” value is recorded as “very good herbicidal activity”. In assay [2], the “herbicidal activity … for rice crops” value is “very good herbicidal activity”.

For the molecule `CCC(F)c1nc(N)nc(NCc2ccc(C3CC3)cc2)n1` (centres unmarked) [Product P26.1604], the “herbicidal activity post-emergence” value in assay [1] is recorded as “very good herbicidal activity”. In assay [2], the “herbicidal activity … for rice crops” value is listed as “very good herbicidal activity”.

Consider `CCC(F)c1nc(N)nc(NC(C)c2ccc(F)c(C(F)=C(F)F)c2)n1` (centres unmarked) [Product P27.5], for which the “herbicidal activity post-emergence” value in assay [1] is reported as “very good herbicidal activity”. The “herbicidal activity … for rice crops” value in assay [2] is “very good herbicidal activity”.

On to `CCC(F)c1nc(N)nc(NC(C)c2cc(F)c(C(F)=C(F)F)c(F)c2)n1` (centres unmarked) [Product P27.49], for which the “herbicidal activity post-emergence” value in assay [1] is on record as “very good herbicidal activity”. In assay [2], the “herbicidal activity … for rice crops” value is reported as “very good herbicidal activity”.

Take `C#Cc1cc(C(C)Nc2nc(N)nc(C(F)CC)n2)ccc1F` (centres unmarked) [Product P27.309]: the “herbicidal activity post-emergence” value in assay [1] is on record as “very good herbicidal activity”. For the same molecule, the “herbicidal activity … for rice crops” value in assay [2] is listed as “very good herbicidal activity”.

On to `C#Cc1ccc(C(C)Nc2nc(N)nc(C(F)CC)n2)cc1C` (centres unmarked) [Product P27.335], for which the “herbicidal activity post-emergence” value in assay [1] is listed as “very good herbicidal activity”. The “herbicidal activity … for rice crops” value in assay [2] is on record as “very good herbicidal activity”.

Take `C#Cc1c(F)cc(C(C)Nc2nc(N)nc(C(F)CC)n2)cc1F` (centres unmarked) [Product P27.352]: in assay [1], the “herbicidal activity post-emergence” value is “very good herbicidal activity”. Also, the “herbicidal activity … for rice crops” value in assay [2] was “very good herbicidal activity”.

For the molecule `CC#Cc1cc(C(C)Nc2nc(N)nc(C(F)CC)n2)ccc1F` (centres unmarked) [Product P27.384], the “herbicidal activity post-emergence” value in assay [1] is reported as “very good herbicidal activity”. The “herbicidal activity … for rice crops” value in assay [2] is reported as “very good herbicidal activity”.

`CC#Cc1c(F)cc(C(C)Nc2nc(N)nc(C(F)CC)n2)cc1F` (centres unmarked) [Product P27.428]: the “herbicidal activity post-emergence” value in assay [1] is on record as “very good herbicidal activity”. Further, in assay [2], the “herbicidal activity … for rice crops” value is “very good herbicidal activity”.

Take `CCC(F)c1nc(N)nc(NC(C)c2ccc(F)c(C#CC(C)O)c2)n1` (centres unmarked) [Product P27.840]: the “herbicidal activity post-emergence” value in assay [1] is listed as “very good herbicidal activity”. The “herbicidal activity … for rice crops” value in assay [2] is listed as “very good herbicidal activity”.

As to `CCC(F)c1nc(N)nc(NC(C)c2ccc(F)c(C3CC3)c2)n1` (centres unmarked) [Product P27.916], the “herbicidal activity post-emergence” value in assay [1] was “very good herbicidal activity”. In assay [2], the “herbicidal activity … for rice crops” value is listed as “very good herbicidal activity”.

Turning to `CCC(F)c1nc(N)nc(NC(C)c2cc(F)c(C3CC3)c(F)c2)n1` (centres unmarked) [Product P27.960], the “herbicidal activity post-emergence” value in assay [1] is given as “very good herbicidal activity”. Further, the “herbicidal activity … for rice crops” value in assay [2] is on record as “very good herbicidal activity”.

On to `CCC(F)c1nc(N)nc(NC(C)c2cccc(C(F)=C(F)F)c2)n1` (centres unmarked) [Product P27.1567], for which the “herbicidal activity post-emergence” value in assay [1] is reported as “very good herbicidal activity”. Further, in assay [2], the “herbicidal activity … for rice crops” value is recorded as “very good herbicidal activity”.

As for `CCC(F)c1nc(N)nc(NC(C)c2ccc(C(F)=C(F)F)cc2)n1` (centres unmarked) [Product P27.1568], the “herbicidal activity post-emergence” value in assay [1] was “very good herbicidal activity”. Moreover, the “herbicidal activity … for rice crops” value in assay [2] is “very good herbicidal activity”.

With `C#Cc1cccc(C(C)Nc2nc(N)nc(C(F)CC)n2)c1` (centres unmarked) [Product P27.1579], the “herbicidal activity post-emergence” value in assay [1] was “very good herbicidal activity”. In addition, the “herbicidal activity … for rice crops” value in assay [2] is listed as “very good herbicidal activity”.

As for `C#Cc1ccc(C(C)Nc2nc(N)nc(C(F)CC)n2)cc1` (centres unmarked) [Product P27.1580], in assay [1], the “herbicidal activity post-emergence” value was “very good herbicidal activity”. In assay [2], the “herbicidal activity … for rice crops” value is “very good herbicidal activity”.

As to `CC#Cc1cccc(C(C)Nc2nc(N)nc(C(F)CC)n2)c1` (centres unmarked) [Product P27.1582], in assay [1], the “herbicidal activity post-emergence” value is recorded as “very good herbicidal activity”. Moreover, the “herbicidal activity … for rice crops” value in assay [2] is given as “very good herbicidal activity”.

`CC#Cc1ccc(C(C)Nc2nc(N)nc(C(F)CC)n2)cc1` (centres unmarked) [Product P27.1583]: the “herbicidal activity post-emergence” value in assay [1] was “very good herbicidal activity”. The “herbicidal activity … for rice crops” value in assay [2] was “very good herbicidal activity”.

Regarding `CCC(F)c1nc(N)nc(NC(C)c2cccc(C#CC(C)O)c2)n1` (centres unmarked) [Product P27.1600], in assay [1], the “herbicidal activity post-emergence” value was “very good herbicidal activity”. In addition, the “herbicidal activity … for rice crops” value in assay [2] was “very good herbicidal activity”.

Take `CCC(F)c1nc(N)nc(NC(C)c2ccc(C#CC(C)O)cc2)n1` (centres unmarked) [Product P27.1601]: the “herbicidal activity post-emergence” value in assay [1] is given as “very good herbicidal activity”. The “herbicidal activity … for rice crops” value in assay [2] was “very good herbicidal activity”.

On to `CCC(F)c1nc(N)nc(NC(C)c2cccc(C3CC3)c2)n1` (centres unmarked) [Product P27.1603], for which, in assay [1], the “herbicidal activity post-emergence” value is “very good herbicidal activity”. The “herbicidal activity … for rice crops” value in assay [2] is “very good herbicidal activity”.

With `CCC(F)c1nc(N)nc(NC(C)c2ccc(C3CC3)cc2)n1` (centres unmarked) [Product P27.1604], the “herbicidal activity post-emergence” value in assay [1] is on record as “very good herbicidal activity”. Besides, the “herbicidal activity … for rice crops” value in assay [2] is “very good herbicidal activity”.

Regarding `C#Cc1cc(C(Nc2nc(N)nc(C(F)CC)n2)C2CC2)ccc1F` (centres unmarked) [Product P29.309], the “herbicidal activity post-emergence” value in assay [1] is given as “very good herbicidal activity”. For the same molecule, the “herbicidal activity … for rice crops” value in assay [2] is “very good herbicidal activity”.

Take `C#Cc1c(F)cc(C(Nc2nc(N)nc(C(F)CC)n2)C2CC2)cc1F` (centres unmarked) [Product P29.352]: in assay [1], the “herbicidal activity post-emergence” value is given as “very good herbicidal activity”. The “herbicidal activity … for rice crops” value in assay [2] was “very good herbicidal activity”.

In the case of `CC#Cc1cc(C(Nc2nc(N)nc(C(F)CC)n2)C2CC2)ccc1F` (centres unmarked) [Product P29.384], in assay [1], the “herbicidal activity post-emergence” value is listed as “very good herbicidal activity”. Besides, the “herbicidal activity … for rice crops” value in assay [2] is on record as “very good herbicidal activity”.

Turning to `CC#Cc1c(F)cc(C(Nc2nc(N)nc(C(F)CC)n2)C2CC2)cc1F` (centres unmarked) [Product P29.428], in assay [1], the “herbicidal activity post-emergence” value was “very good herbicidal activity”. Moreover, the “herbicidal activity … for rice crops” value in assay [2] is given as “very good herbicidal activity”.

Take `CCC(F)c1nc(N)nc(NC(c2cccc(C(F)=C(F)F)c2)C2CC2)n1` (centres unmarked) [Product P29.1567]: in assay [1], the “herbicidal activity post-emergence” value was “very good herbicidal activity”. Further, the “herbicidal activity … for rice crops” value in assay [2] was “very good herbicidal activity”.

With `CCC(F)c1nc(N)nc(NC(c2ccc(C(F)=C(F)F)cc2)C2CC2)n1` (centres unmarked) [Product P29.1568], the “herbicidal activity post-emergence” value in assay [1] was “very good herbicidal activity”. Further, the “herbicidal activity … for rice crops” value in assay [2] is reported as “very good herbicidal activity”.

On to `C#Cc1cccc(C(Nc2nc(N)nc(C(F)CC)n2)C2CC2)c1` (centres unmarked) [Product P29.1579], for which, in assay [1], the “herbicidal activity post-emergence” value is given as “very good herbicidal activity”. Moreover, the “herbicidal activity … for rice crops” value in assay [2] is “very good herbicidal activity”.

Consider `C#Cc1ccc(C(Nc2nc(N)nc(C(F)CC)n2)C2CC2)cc1` (centres unmarked) [Product P29.1580], for which, in assay [1], the “herbicidal activity post-emergence” value is “very good herbicidal activity”. Also, the “herbicidal activity … for rice crops” value in assay [2] is “very good herbicidal activity”.

`CC#Cc1cccc(C(Nc2nc(N)nc(C(F)CC)n2)C2CC2)c1` (centres unmarked) [Product P29.1582]: the “herbicidal activity post-emergence” value in assay [1] is reported as “very good herbicidal activity”. Also, the “herbicidal activity … for rice crops” value in assay [2] was “very good herbicidal activity”.
